# Laboratory results as given in PMC12361428 (Nature Communications, 2025).
# Substitutions are numbered along the chain they refer to. Where “and” joins values, the source holds several entries; their conditions need not be identical. Equal values may be shown once.
# What was measured:
# [1] = target: T1, A3AR Y15A^1.35 (Homo sapiens, UniProt P0DMS8, Y15A); assay: Gαi1 activation, TruPath BRET assay in HEK293a cells; assay type: cell-based
# T1 construct: expressed in transfected cells; host or cells: HEK293a
# T1 sequence (P0DMS8 1-318 Y15A): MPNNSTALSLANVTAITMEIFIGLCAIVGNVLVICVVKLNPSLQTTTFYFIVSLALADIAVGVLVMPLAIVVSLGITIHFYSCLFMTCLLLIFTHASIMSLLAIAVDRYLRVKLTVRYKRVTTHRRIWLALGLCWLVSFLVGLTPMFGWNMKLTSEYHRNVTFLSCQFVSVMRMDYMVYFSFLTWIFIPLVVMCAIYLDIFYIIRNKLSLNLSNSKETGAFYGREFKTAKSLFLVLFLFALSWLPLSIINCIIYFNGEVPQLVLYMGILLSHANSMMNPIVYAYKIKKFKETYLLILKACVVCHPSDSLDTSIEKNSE
# Description: (§1) PEI was added at a 6:1 PEI-to-DNA ratio. Two days post-transfection, plates were washed twice with BRET buffer (HBSS with 10 mM HEPES, pH 7.4). After a 30-min incubation at 37 °C, plates were placed in a PHERAstar plate reader at 37 °C, and four baseline readings were taken using BRET2 filters at 410 ± 80 nm and 515 ± 30 nm. […] BRET2 ratios were calculated as the ratio of GFP2 emission (515 ± 30 nm) to RLuc8 emission (410 ± 80 nm).
# (§2) Data were expressed as the mean ± standard error. All binding and Trupath data were analysed using the nonlinear regression curve-fitting programme with Prism 10 (GraphPad, San Diego, CA, USA). For nanoBRET saturation binding experiments, specific binding was calculated by subtracting non-specific binding (defined as binding in the presence of 10 µM MRS1220) from total binding. Specific binding data in each experiment were then normalised to the maximal binding (Bmax) of WT and fit to a one-site specific binding equation: Y =Bmax*[X]/(Kd + [X]). For nanoBRET competition binding experiments, data were normalised to total and non-specific binding responses and fit to a one-site—Fit Ki equation. Trupath's experimental data was baseline-corrected to the initial four baseline reads and then adjusted to the buffer control response. The area under the curve (AUC) for each response was calculated and plotted with a non-linear regression curve (log[agonist] vs response, three-parameter model), using the equation: Y = Bottom + (Top–Bottom)/(1 + 10^((LogEC50-X))). Here, X represents the log dose of the agonist, Y is the BRET2 AUC response, Top and Bottom are the curve plateaus, and EC50 is the agonist concentration yielding a response halfway between the Bottom and Top values. To determine efficacy values. The efficacy of the agonists (τA) was separately calculated using the Black–Leff operational model of agonism[79] using KA values from Table 2 and then corrected for receptor expression relative to WT using Bmax values from Table 1[80]. Significant differences vs WT were determined by one-way ANOVA with a Dunnett’s multiple comparison test. Significance levels are indicated as follows: P ≤ 0.0001****, P = 0.0001–0.001***, P = 0.001–0.01**, and P = 0.01–0.05*.
# [2] = target: T2, A3AR T94A^3.36 (Homo sapiens, UniProt P0DMS8, T94A); assay: as above; assay type: cell-based
# T2 construct: expressed in transfected cells; host or cells: HEK293a
# Description: PEI was added at a 6:1 PEI-to-DNA ratio.
# Data were expressed as the mean ± standard error. All binding and Trupath data were analysed using the nonlinear regression curve-fitting programme with Prism 10 (GraphPad, San Diego, CA, USA). For nanoBRET saturation binding experiments, specific binding was calculated by subtracting non-specific binding (defined as binding in the presence of 10 µM MRS1220) from total binding. Specific binding data in each experiment were then normalised to the maximal binding (Bmax) of WT and fit to a one-site specific binding equation: Y =Bmax*[X]/(Kd + [X]). For nanoBRET competition binding experiments, data were normalised to total and non-specific binding responses and fit to a one-site—Fit Ki equation. Trupath's experimental data was baseline-corrected to the initial four baseline reads and then adjusted to the buffer control response. The area under the curve (AUC) for each response was calculated and plotted with a non-linear regression curve (log[agonist] vs response, three-parameter model), using the equation: Y = Bottom + (Top–Bottom)/(1 + 10^((LogEC50-X))). […] Significant differences vs WT were determined by one-way ANOVA with a Dunnett’s multiple comparison test. […]
# [3] = target: T3, A3AR H95F^3.37 (Homo sapiens, UniProt P0DMS8, H95F); assay: as above; assay type: cell-based
# T3 construct: expressed in transfected cells; host or cells: HEK293a
# T3 sequence (P0DMS8 1-318 H95F): T1 sequence (P0DMS8 1-318 Y15A) with A15Y, H95F
# Description: as §1, §2
# [4] = target: T4, A3AR N250A^6.55 (Homo sapiens, UniProt P0DMS8, N250A); assay: as above; assay type: cell-based
# T4 construct: expressed in transfected cells; host or cells: HEK293a
# T4 sequence (P0DMS8 1-318 N250A): T1 sequence (P0DMS8 1-318 Y15A) with A15Y, N250A
# Description: as §1, §2
# [5] = target: T5, A3AR H272A^7.43 (Homo sapiens, UniProt P0DMS8, H272A); assay: as above; assay type: cell-based
# T5 construct: expressed in transfected cells; host or cells: HEK293a
# T5 sequence (P0DMS8 1-318 H272A): T1 sequence (P0DMS8 1-318 Y15A) with A15Y, H272A
# Description: as §1, §2
# [6] = target: A3AR H95A^3.37 (Homo sapiens, UniProt P0DMS8, H95A); assay: as above
# Description: (§3) Two days post-transfection, plates were washed twice with BRET buffer (HBSS with 10 mM HEPES, pH 7.4). After a 30-min incubation at 37 °C, plates were placed in a PHERAstar plate reader at 37 °C, and four baseline readings were taken using BRET2 filters at 410 ± 80 nm and 515 ± 30 nm. […] BRET2 ratios were calculated as the ratio of GFP2 emission (515 ± 30 nm) to RLuc8 emission (410 ± 80 nm).
# (§4) Data were expressed as the mean ± standard error. All binding and Trupath data were analysed using the nonlinear regression curve-fitting programme with Prism 10 (GraphPad, San Diego, CA, USA). […] Trupath's experimental data was baseline-corrected to the initial four baseline reads and then adjusted to the buffer control response. The area under the curve (AUC) for each response was calculated and plotted with a non-linear regression curve (log[agonist] vs response, three-parameter model), using the equation: Y = Bottom + (Top–Bottom)/(1 + 10^((LogEC50-X))). Here, X represents the log dose of the agonist, Y is the BRET2 AUC response, Top and Bottom are the curve plateaus, and EC50 is the agonist concentration yielding a response halfway between the Bottom and Top values. […] Significant differences vs WT were determined by one-way ANOVA with a Dunnett’s multiple comparison test.
# [7] = target: A3AR S271A^7.42 (Homo sapiens, UniProt P0DMS8, S271A); assay: as above
# Description: as §3, §4
# [8] = target: T6, A3AR-BRIL (Homo sapiens, UniProt P0DMS8); assay: NanoBRET competition binding vs XAC-630; details: for XAC-630 NanoBRET binding, normalised (Figure S2H), individual replicates: A3AR-BRIL
# T6 sequence (P0DMS8 1-318): T1 sequence (P0DMS8 1-318 Y15A) with A15Y
# Description: All experiments were performed in duplicate.
# Data were expressed as the mean ± standard error. All binding and Trupath data were analysed using the nonlinear regression curve-fitting programme with Prism 10 (GraphPad, San Diego, CA, USA). For nanoBRET saturation binding experiments, specific binding was calculated by subtracting non-specific binding (defined as binding in the presence of 10 µM MRS1220) from total binding. Specific binding data in each experiment were then normalised to the maximal binding (Bmax) of WT and fit to a one-site specific binding equation: Y =Bmax*[X]/(Kd + [X]). For nanoBRET competition binding experiments, data were normalised to total and non-specific binding responses and fit to a one-site—Fit Ki equation. […] Significant differences vs WT were determined by one-way ANOVA with a Dunnett’s multiple comparison test.
# Chain of A3AR H95A^3.37 (P0DMS8 whole entry H95A): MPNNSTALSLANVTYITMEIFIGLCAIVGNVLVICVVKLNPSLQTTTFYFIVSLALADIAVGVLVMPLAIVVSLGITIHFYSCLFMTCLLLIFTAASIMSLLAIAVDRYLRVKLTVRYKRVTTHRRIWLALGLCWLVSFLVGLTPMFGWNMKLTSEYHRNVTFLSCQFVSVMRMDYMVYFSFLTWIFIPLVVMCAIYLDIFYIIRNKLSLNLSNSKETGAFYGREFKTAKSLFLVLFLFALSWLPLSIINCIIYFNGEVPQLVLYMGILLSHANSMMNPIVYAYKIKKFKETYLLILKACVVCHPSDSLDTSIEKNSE
# T2 sequence (P0DMS8 whole entry T94A): as the sequence (P0DMS8 whole entry H95A) above, with T94A, A95H counted along it
# Chain of A3AR S271A^7.42 (P0DMS8 whole entry S271A): as the sequence (P0DMS8 whole entry H95A) above, with A95H, S271A counted along it
compound,measurement,setting,value
"Nc1ncnc2c1ncn2[C@@H]1O[C@H](CO)[C@@H](O)[C@H]1O [Adenosine, adenosine]","log τ (efficacy, operational model, corrected for receptor expression)",[1],0.6 ± 0.3
same,∆∆BRET Emax,[1],0.19 ± 0.02
same,"Gαi1 activation response (Figure 7F), individual replicates",[1]; log [agonist] -3,0.171 and 0.1858 and 0.1817
same,"Gαi1 activation response (Figure 7F), individual replicates",[1]; log [agonist] -4,0.1266 and 0.1086 and 0.09084
same,"Gαi1 activation response (Figure 7F), individual replicates",[1]; log [agonist] -5,0.08727 and 0.0349 and 0.02463
same,"Gαi1 activation response (Figure 7F), individual replicates",[1]; log [agonist] -6,0.02891 and 0.02444 and 0.02972
same,"Gαi1 activation response (Figure 7F), individual replicates",[1]; log [agonist] -7,0.01513 and 0.03836 and 0.02349
same,"Gαi1 activation response (Figure 7F), individual replicates",[1]; log [agonist] -8,0.0199 and 0.02219 and 0.02387
same,"Gαi1 activation response (Figure 7F), individual replicates",[1]; log [agonist] -9,0.02702 and 0.04406 and 0.02415
same,"log τ (efficacy, operational model, corrected for receptor expression)",[2],0.8 ± 0.09
same,∆∆BRET Emax,[2],0.49 ± 0.04
same,"log τ (efficacy, operational model, corrected for receptor expression)",[3],N.R.
same,∆∆BRET Emax,[3],N.R
same,"Gαi1 activation response (Figure 7F), individual replicates",[3]; log [agonist] -3,0.03876 and 0.1313 and 0.08684
same,"Gαi1 activation response (Figure 7F), individual replicates",[3]; log [agonist] -4,0.03491 and 0.05099 and 0.06294
same,"Gαi1 activation response (Figure 7F), individual replicates",[3]; log [agonist] -5,0.01638 and 0.04515 and 0.03044
same,"Gαi1 activation response (Figure 7F), individual replicates",[3]; log [agonist] -6,0.01795 and 0.02273 and 0.02037
same,"Gαi1 activation response (Figure 7F), individual replicates",[3]; log [agonist] -7,0.02917 and 0.01651 and 0.04473
same,"Gαi1 activation response (Figure 7F), individual replicates",[3]; log [agonist] -8,0.01844 and 0.06153 and 0.04217
same,"Gαi1 activation response (Figure 7F), individual replicates",[3]; log [agonist] -9,0.02564 and 0.03775 and 0.0773
same,"log τ (efficacy, operational model, corrected for receptor expression)",[4],N.R.
same,∆∆BRET Emax,[4],N.R
same,"Gαi1 activation response (Figure 7F), individual replicates",[4]; log [agonist] -3,0.1982 and 0.05834 and 0.1787
same,"Gαi1 activation response (Figure 7F), individual replicates",[4]; log [agonist] -4,0.07983 and 0.02674 and 0.09536
same,"Gαi1 activation response (Figure 7F), individual replicates",[4]; log [agonist] -6,0.1133 and 0.01975
same,"Gαi1 activation response (Figure 7F), individual replicates",[4]; log [agonist] -7,0.04263 and 0.06697 and 0.05413
same,"Gαi1 activation response (Figure 7F), individual replicates",[4]; log [agonist] -8,0.04211 and 0.09403 and 0.02948
same,"Gαi1 activation response (Figure 7F), individual replicates",[4]; log [agonist] -9,0.09604 and 0.06365 and 0.0751
same,"log τ (efficacy, operational model, corrected for receptor expression)",[5],N.R.
same,∆∆BRET Emax,[5],N.R
same,"Gαi1 activation response (Figure 7F), individual replicates",[5]; log [agonist] -3,0.105 and 0.09941
same,"Gαi1 activation response (Figure 7F), individual replicates",[5]; log [agonist] -4,0.06736 and 0.02567 and 0.03084
same,"Gαi1 activation response (Figure 7F), individual replicates",[5]; log [agonist] -5,0.05631 and 0.02851 and 0.01939
same,"Gαi1 activation response (Figure 7F), individual replicates",[5]; log [agonist] -6,0.03915 and 0.06464 and 0.04347
same,"Gαi1 activation response (Figure 7F), individual replicates",[5]; log [agonist] -7,0.04202 and 0.01796 and 0.03024
same,"Gαi1 activation response (Figure 7F), individual replicates",[5]; log [agonist] -8,0.03672 and 0.03614 and 0.07396
same,"Gαi1 activation response (Figure 7F), individual replicates",[5]; log [agonist] -9,0.03473 and 0.04344 and 0.05169
same,"log τ (efficacy, operational model, corrected for receptor expression)",[6],0.3 ± 0.3
same,∆∆BRET Emax,[6],0.63 ± 0.12
same,∆∆BRET Emax,[7],0.70 ± 0.15
CCCn1c(=O)c2c(nc3cc(OC)ccn32)n(CCCCNC(=O)c2ccc(S(=O)(=O)F)cc2)c1=O [LUF7602],pKi Mean (Figure S2H),"[8]; BRIL, n 3",6.94
same,"XAC-630 NanoBRET binding, normalised (Figure S2H), individual replicates",[8]; log LUF7602 -5,0
same,"XAC-630 NanoBRET binding, normalised (Figure S2H), individual replicates",[8]; log LUF7602 -6,22.1463 and 17.4094 and 21.7431
same,"XAC-630 NanoBRET binding, normalised (Figure S2H), individual replicates",[8]; log LUF7602 -7,61.493 and 91.0533 and 82.952
same,"XAC-630 NanoBRET binding, normalised (Figure S2H), individual replicates",[8]; log LUF7602 -8,66.0931 and 109.671 and 102.784
same,"XAC-630 NanoBRET binding, normalised (Figure S2H), individual replicates",[8]; log LUF7602 -9,71.5361 and 107.819 and 104.301
same,"XAC-630 NanoBRET binding, normalised (Figure S2H), individual replicates",[8]; log LUF7602 -10,72.9226 and 106.236 and 100.479
